The melting point is the temperature, or range, at which the solid turns liquid.

Bounds are passed on as bounds.

As for `Cc1cc2c(cc1-c1ccc(F)cc1)NC(=O)CC(c1cccc(-n3ccnc3)c1)=N2`, the melting point amounted to 196 °C.

Regarding `CC(C)(C)OC(=O)c1nc(-c2ccccc2)[nH]c1C1CCCCC1`, the melting point lay in the range of 222 to 223 °C.

As for `N#Cc1ccc(N2C(=O)NC3(CCCCC3)C2=O)cc1C(F)(F)F`, the melting point was 187 °C.

Consider `Cc1ccc2[nH]c3c(cc(-c4cccc(Nc5ccccn5)c4)c(=O)n3C)c2c1`, for which the melting point lay within 250 to 252 °C.

Regarding `CC(=O)SC(CC(=O)c1cccc(C)c1)C(=O)O` (configuration not stated), the melting point was 74 to 76 °C.

`Oc1nc2c(Cl)nc3ccccc3c2n1CC1CCOCC1` had a melting point of more than 275 °C.

Consider `CC(C)NC(=O)C(Cc1ccccc1)NC(=O)Nc1n[nH]c(=S)s1` (configuration not stated), for which the melting point fell in the range of 206 to 211 °C.

Consider `COC(=O)c1ccc(OCCNC(=O)C2Cc3ccccc3N2S(=O)(=O)c2ccc(-c3ccc(F)cc3)cc2)cc1F` (configuration not stated), for which the melting point was in the range of 77 to 81 °C.

Regarding `COC(=O)Cc1ccc(C(=O)c2ccc(C)cc2)[nH]1`, the melting point fell in the range of 118 to 120 °C.

The molecule `O=C1CC2(CCCCC2Cc2ccccc2)S(=O)(=O)CCN1` (configuration not stated) yielded a melting point of 130 to 135 °C.

`Cc1cc(C2=NCCc3ccccc32)n(C)n1` gave a melting point of 112 °C.

For the molecule `O=C(Oc1cc([N+](=O)[O-])c(F)cc1Cl)Oc1cc([N+](=O)[O-])c(F)cc1Cl`, the melting point fell in the range of 165 to 166 °C.

As to `COCn1nnc(NC(=O)C2c3ccccc3Oc3ccccc32)n1`, the melting point was in the range of 221 to 222 °C.

On to `Cn1nc(Br)c([N+](=O)[O-])c1NCCO`, for which the melting point is 150 °C.

The molecule `CC(C)(C)C(=O)OCOC(=O)c1cn(CC(F)(F)F)c2cc3c(cc2c1=O)OCO3` displayed a melting point of 190 to 191 °C.

`Cc1nn(-c2ccc(Cl)c3c2CC(C)O3)c(=O)n1C(F)F` (configuration not stated) returned a melting point of 78 to 79 °C.

With `COC(=O)C12Cc3cc(Cl)ccc3C1=NN(C(=O)N(C)c1ccc(OC(F)(F)F)cc1)CO2` (configuration not stated), the melting point lay within 130 to 131 °C.

With `Cc1ccc(C=C2CCN(C(=O)c3nc4ccc(O)cc4[nH]3)CC2)cc1`, the melting point stood at 82 °C.

As to `CCSc1cc(C)nc(SCC)c1NC(=O)CCCSc1nc2c(C)c(Cl)cc(C(C)C)c2o1`, the melting point is 122 to 123 °C.

For the molecule `CSc1cc(Cl)ccc1C(=O)CC#N`, the melting point was 139 to 141 °C.

In turn, `CCc1c(Cc2c[nH]c3ccccc23)[nH]c(=O)c(CC(C)C)[n+]1[O-]` had a melting point of 212 to 214 °C.

`Cc1ccc(-c2ccnc3c(C(=O)c4cccs4)cnn23)cc1NC(=O)CC(C)C` yielded a melting point of 185 to 187 °C.

Regarding `Cc1ccc(C(=O)CC(=O)C2CC2)c(S(C)(=O)=O)c1`, the melting point is 129 to 131 °C.

As for `COc1ccc(CS(=O)(=O)c2cc3cc(Cl)ccc3oc2=O)cc1`, the melting point lay within 224 to 226 °C.

In the case of `O=[N+]([O-])c1cccc(NC(=S)NCc2cccnc2)c1`, the melting point came out at 159 °C.

Molecule `Cc1cc(Br)ccc1N=CN(C)SN(C)C=Nc1ccc(Br)cc1C` gave a melting point of 127 to 129 °C.

The molecule `O=c1oc2c(c(O)c1C(c1ccccc1)C1CC1)CCCCCC2CC1CCCOC1` (configuration not stated) showed a melting point of 89 to 95 °C.

Consider `O=C(O)c1ccc(/C=C/c2ccccc2-c2cccs2)cc1`, for which the melting point is 208 to 210 °C.

Consider `CCc1c(OC)c(C)c(OC)c2c1C(=O)N(CSc1nnnn1-c1ccccc1)S2(=O)=O`, for which the melting point was in the range of 44 to 46 °C.

Take `Cc1nc(-c2ccc(Cl)cc2)oc1CO`: the melting point was 135 °C.

For `N#Cc1cnc2cc3c(cc2c1Nc1ccc(Cl)cc1Cl)OCCN3`, the melting point was in the range of 254 to 255 °C.

The molecule `O=C(O)Cc1cn2ccccc2n1` showed a melting point of 205 to 208 °C.

Turning to `CCOc1ccc(Cl)cc1C(N)=O`, the melting point lay within 136 to 139 °C.

Turning to `CNc1ccc2ccccc2c1-c1c(P(c2ccccc2)c2ccccc2)ccc2ccccc12`, the melting point is 100 °C.

For `CCOC(=O)c1cc(Cl)c(Cl)c(C2=NOCC2)c1C`, the melting point was 96 to 97 °C.

With `O=C1N(Cc2cccc(-c3noc(C(F)(F)F)n3)c2)c2ccccc2C12COc1cc3c(cc12)CCO3` (configuration not stated), the melting point is 182 to 188 °C.

The molecule `CCCCc1oc2ccc([N+](=O)[O-])cc2c1C(=O)c1ccc(OCCBr)cc1` yielded a melting point of 81 °C.

In turn, `CS(=O)(=O)Oc1ccc(N)c(OCCBr)c1` came in with a melting point of 69 to 70 °C.

As for `CCCCCOc1cc(C(=O)O)cc(N)c1C(=O)c1ccccc1`, the melting point fell in the range of 168 to 170 °C.

The molecule `CCOC(=O)C1OC1C(=O)NCc1ccccc1` (configuration not stated) showed a melting point of 90 to 91 °C.

`O=C1NC(CCc2cc(C(F)(F)F)cc(C(F)(F)F)c2)C(Cc2c[nH]c3ccccc23)N1` (configuration not stated): the melting point lay within 194 to 195 °C.

For `CCOC(=O)CC[C@H](NC1CCC(CCC2CNc3nc(NC(=O)C(C)(C)C)nc(O)c3C2)CC1)C(=O)OCC` (some centres not stated), the melting point lay within 160 to 170 °C.

The molecule `N#CCc1ccc(NS(=O)(=O)c2ccc(N3CCNC3=O)cc2)cc1` registered a melting point of 204 to 206 °C.

The molecule `COc1ccc(C(=O)OCCN2CCC(Nc3nc4ccccc4n3Cc3ccc(F)cc3)CC2)cc1` showed a melting point of 189 °C.

`CC(=O)OCc1c(-c2ccccc2)oc2c(CO)cccc2c1=O` came in with a melting point of 204 to 206 °C.

For the molecule `CCCCc1nc2ccn(Cc3ccc(C(=O)O)cc3)c(=O)c2n1Cc1ccc(-c2ccccc2-c2nnn[nH]2)cc1`, the melting point is more than 300 °C.

For `CCCc1cnc2c(NC(=O)c3c(Cl)cccc3Cl)cccc2c1NNC(C)=O`, the melting point was 223 to 226 °C.

The molecule `O=[N+]([O-])c1c(NCCO)cc(Cl)cc1NCCO` gave a melting point of 154 °C.

`CCOCCCOc1ccc(-c2ccc3c(c2)C=C(C(=O)OC)CCN3S(C)(=O)=O)cc1` yielded a melting point of 127 to 129 °C.

With `CCOC(=O)C1=C(C(OC)OC)Nc2nccn2C1c1cccc([N+](=O)[O-])c1` (configuration not stated), the melting point fell in the range of 190 to 191 °C.

`O=C(O)C1CC(=O)N(c2cc(C(F)(F)F)cc(C(F)(F)F)c2)C1` (configuration not stated): the melting point is 108 to 109 °C.

`CCOc1ccc2c(c1)n(C1CCCCC1)c(=O)n2S(=O)(=O)c1ccc(C(=O)NC(C)(C)C)cc1OC` registered a melting point of 252 °C.

Molecule `O=C(O)CCCCCCCCCCCCCCCI` came in with a melting point of 71 to 72 °C.

Consider `CCOC(=S)c1cc(C)c(Br)cc1N`, for which the melting point was 48 to 50 °C.

In turn, `CCN(CC)c1ccc(CN2C(=O)C(C)(c3ccccc3Cl)c3cc(Cl)ccc32)c(OC)c1` (configuration not stated) showed a melting point of 198 °C.

In turn, `COc1cc(N2CCCN(C[C@H](O)CO)CC2)ccc1Nc1ncc2ccc(-c3ccccc3OC)n2n1` came in with a melting point of 93 to 99 °C.

`Cc1ccc(S(=O)(=O)NC(=O)OCCc2ccc(-n3c(CCC(=O)c4ccccn4)nc4cc(C(F)(F)F)c(Cl)cc43)cc2)cc1`: the melting point amounted to 234 °C.

With `CCCCc1nc(=O)n2ncc(Br)c2[nH]1`, the melting point turned out to be 188 °C.

In turn, `COc1cc2c(c(C)c1C)C(=O)CC2c1c[nH]cn1` (configuration not stated) came in with a melting point of 258 to 261 °C.

The molecule `Cc1nn(C2(F)C=CC([N+](=O)[O-])=CC2)c(=O)n1C(F)F` (configuration not stated) registered a melting point of 82 to 83 °C.

`CC1(C)CCC(C)(C)c2c(O)cc(C=O)cc21` displayed a melting point of 144 °C.

`CCOC(=O)C1CSC(COc2ccc(OC)cc2)N1C(=O)CCl` (configuration not stated) had a melting point of 69 to 71 °C.

These data come from a melting point compilation (Tetko et al.; mined from patent text by program, amines drawn as free bases though some values may be those of a salt).
